≈ marks a conversion by molar mass, not a printed value.
How the values were obtained:
[1] = tested on: Acinetobacter baumannii; experiment: Antibacterial activity against Acinetobacter baumannii ATCC 19606 incubated for 16 to 18 hrs by CLSI based broth dilution method; assay type: functional; conditions: time 16-18 hrs
[2] = tested on: HepG2; experiment: Cytotoxicity against human HepG2 cells measured after 72 hrs by MTT assay; assay type: functional, cell-based; conditions: HepG2, 72 h
[3] = target: T1, Dihydrofolate reductase (Homo sapiens) (UniProt P00374); experiment: Inhibition of human DHFR at 1 uM incubated for 10 mins in presence of NADPH by colorimetry based analysis relative to control
T1 sequence (whole entry): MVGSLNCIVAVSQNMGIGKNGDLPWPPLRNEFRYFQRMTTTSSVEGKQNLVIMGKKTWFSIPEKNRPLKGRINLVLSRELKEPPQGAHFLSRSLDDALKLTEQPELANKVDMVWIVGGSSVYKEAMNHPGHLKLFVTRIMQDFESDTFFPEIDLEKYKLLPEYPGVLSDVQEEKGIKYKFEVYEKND

[4] = tested on: Staphylococcus epidermidis; experiment: Antibacterial activity against Staphylococcus epidermidis ATCC 12228 incubated for 16 to 18 hrs by CLSI based broth dilution method; assay type: functional; conditions: time 16-18 hrs
[5] = tested on: HGC-27; experiment: Cytotoxicity against human HGC-27 cells measured after 72 hrs by MTT assay; assay type: functional, cell-based; conditions: HGC-27, 72 h
[6] = tested on: Enterococcus faecalis; experiment: Antibacterial activity against Enterococcus faecalis ATCC 29212 incubated for 16 to 18 hrs by CLSI based broth dilution method; assay type: functional; conditions: time 16-18 hrs
[7] = tested on: Escherichia coli; experiment: Antibacterial activity against Escherichia coli ATCC 25922 incubated for 16 to 18 hrs by CLSI based broth dilution method; assay type: functional; conditions: time 16-18 hrs
[8] = tested on: Staphylococcus aureus; experiment: Antibacterial activity against methicillin-resistant Staphylococcus aureus ATCC 43300 incubated for 16 to 18 hrs by CLSI based broth dilution method; assay type: functional; conditions: time 16-18 hrs
[9] = tested on: MCF7; experiment: Cytotoxicity against human MCF7 cells measured after 72 hrs by MTT assay; assay type: functional, cell-based; conditions: MCF7, 72 h
[10] = tested on: HCT-116; experiment: Cytotoxicity against human HCT-116 cells measured after 72 hrs by MTT assay; assay type: functional, cell-based; conditions: HCT-116, 72 h
[11] = tested on: Staphylococcus aureus; experiment: Antibacterial activity against Staphylococcus aureus ATCC 29213 incubated for 16 to 18 hrs by CLSI based broth dilution method; assay type: functional; conditions: time 16-18 hrs
[12] = tested on: Staphylococcus aureus; experiment: Antibacterial activity against methicillin-sensitive Staphylococcus aureus ATCC 25923 incubated for 16 to 18 hrs by CLSI based broth dilution method; assay type: functional; conditions: time 16-18 hrs
[13] = tested on: Staphylococcus aureus; experiment: Antibacterial activity against vancomycin intermediate Staphylococcus aureus ATCC 700699 incubated for 16 to 18 hrs by CLSI based broth dilution method; assay type: functional; conditions: time 16-18 hrs
[14] = tested on: Staphylococcus aureus; experiment: Antibacterial activity against methicillin-sensitive Staphylococcus aureus ATCC 29213 incubated for 16 to 18 hrs by CLSI based broth dilution method; assay type: functional; conditions: time 16-18 hrs
[15] = tested on: Pseudomonas aeruginosa; experiment: Antibacterial activity against Pseudomonas aeruginosa ATCC 27853 incubated for 16 to 18 hrs by CLSI based broth dilution method; assay type: functional; conditions: time 16-18 hrs
[16] = tested on: Acinetobacter baumannii; experiment: Antibacterial activity against Acinetobacter baumannii ATCC 19606 assessed as reduction in microbial growth incubated for 16 to 18 hrs by CLSI based broth dilution method; assay type: functional; conditions: time 16-18 hrs
[17] = tested on: Escherichia coli; experiment: Antibacterial activity against Escherichia coli ATCC BAA-2340 incubated for 16 to 18 hrs by CLSI based broth dilution method; assay type: functional; conditions: time 16-18 hrs
[18] = tested on: Acinetobacter baumannii; experiment: Antibacterial activity against Acinetobacter baumannii 20-2 incubated for 16 to 18 hrs by CLSI based broth dilution method; assay type: functional; conditions: time 16-18 hrs
[19] = tested on: Enterococcus; experiment: Antibacterial activity against Vancomycin-resistant Enterococcus ATCC 51575 incubated for 16 to 18 hrs by CLSI based broth dilution method; assay type: functional; conditions: time 16-18 hrs
[20] = tested on: Staphylococcus aureus; experiment: Antibacterial activity against methicillin-sensitive Staphylococcus aureus 15-1 incubated for 16 to 18 hrs by CLSI based broth dilution method; assay type: functional; conditions: time 16-18 hrs
[21] = tested on: Staphylococcus aureus; experiment: Antibacterial activity against methicillin-resistant Staphylococcus aureus ATCC 33591 incubated for 16 to 18 hrs by CLSI based broth dilution method; assay type: functional; conditions: time 16-18 hrs
[22] = tested on: Enterococcus faecalis; experiment: Antibacterial activity against Enterococcus faecalis EFA19-2 incubated for 16 to 18 hrs by CLSI based broth dilution method; assay type: functional; conditions: time 16-18 hrs
[23] = tested on: Klebsiella pneumoniae; experiment: Antibacterial activity against Klebsiella pneumoniae ATCC 700603 assessed as reduction in microbial growth incubated for 16 to 18 hrs by CLSI based broth dilution method; assay type: functional; conditions: time 16-18 hrs
[24] = tested on: Staphylococcus aureus; experiment: Antibacterial activity against methicillin-sensitive Staphylococcus aureus 15-2 incubated for 16 to 18 hrs by CLSI based broth dilution method; assay type: functional; conditions: time 16-18 hrs
[25] = tested on: Staphylococcus aureus; experiment: Antibacterial activity against vancomycin intermediate Staphylococcus aureus ATCC 700788 incubated for 16 to 18 hrs by CLSI based broth dilution method; assay type: functional; conditions: time 16-18 hrs
[26] = tested on: Escherichia coli; experiment: Antibacterial activity against Escherichia coli ECO 15-1 incubated for 16 to 18 hrs by CLSI based broth dilution method; assay type: functional; conditions: time 16-18 hrs
[27] = tested on: Klebsiella pneumoniae; experiment: Antibacterial activity against Klebsiella pneumoniae 15-1 assessed as reduction in microbial growth incubated for 16 to 18 hrs by CLSI based broth dilution method; assay type: functional; conditions: time 16-18 hrs
[28] = tested on: Enterococcus faecalis; experiment: Antibacterial activity against Enterococcus faecalis EFA19-1 incubated for 16 to 18 hrs by CLSI based broth dilution method; assay type: functional; conditions: time 16-18 hrs
[29] = tested on: Acinetobacter baumannii; experiment: Antibacterial activity against Acinetobacter baumannii 20-1 incubated for 16 to 18 hrs by CLSI based broth dilution method; assay type: functional; conditions: time 16-18 hrs

| Structure (SMILES) | MIC [1] | IC50 [2] | inhibition [3] | MIC [4] | IC50 [5] | MIC [6] | MIC [7] | MIC [8] | IC50 [9] | IC50 [10] | MIC [11] | other results |
| --- | --- | --- | --- | --- | --- | --- | --- | --- | --- | --- | --- | --- |
| Nc1nc(N)c2c(ccc3c2ccn3Cc2cc3ccccc3s2)n1 | 32 mg/L (≈ 92.6 µM) | 0.27 µM | 70.9% | ≤ 0.004 mg/L | 0.51 µM | 0.125 mg/L (≈ 0.362 µM) | 0.25 mg/L (≈ 0.724 µM) | 0.125 mg/L (≈ 0.362 µM) | 0.91 µM | 1.94 µM | 0.125 mg/L (≈ 0.362 µM) |  |
| Nc1nc(N)c2c(ccc3c2ccn3Cc2cccc3ccccc23)n1 | 1 mg/L (≈ 2.95 µM) | 0.52 µM | 83.9% | 1 mg/L (≈ 2.95 µM) | 1.01 µM | 0.125 mg/L (≈ 0.368 µM) | 1 mg/L (≈ 2.95 µM) | 0.06 mg/L (≈ 0.177 µM) | 0.46 µM | > 10 µM | 0.125 mg/L (≈ 0.368 µM) | MIC [12]: ≤ 0.03 mg/L; MIC [13]: 0.06 mg/L (≈ 0.177 µM); MIC [14]: ≤ 0.03 mg/L; MIC [15]: > 64 mg/L; MIC [16]: 1 mg/L; MIC [17]: > 64 mg/L; MIC [18]: 2 mg/L (≈ 5.89 µM); MIC [19]: ≤ 0.03 mg/L; MIC [20]: ≤ 0.03 mg/L; MIC [21]: ≤ 0.03 mg/L; MIC [22]: ≤ 0.03 mg/L; MIC [23]: 4 mg/L; MIC [24]: ≤ 0.03 mg/L; MIC [25]: ≤ 0.03 mg/L; MIC [26]: > 64 mg/L; MIC [27]: 4 mg/L; MIC [28]: ≤ 0.03 mg/L; MIC [29]: 32 mg/L (≈ 94.3 µM) |
| Nc1nc(N)c2c(ccc3c2ccn3Cc2ccc3ncsc3c2)n1 | 16 mg/L (≈ 46.2 µM) | 1.17 µM | 80.6% | ≤ 0.004 mg/L | 0.31 µM | 0.25 mg/L (≈ 0.722 µM) | 0.25 mg/L (≈ 0.722 µM) | 0.125 mg/L (≈ 0.361 µM) | 3.87 µM | > 10 µM | 0.25 mg/L (≈ 0.722 µM) |  |
| Nc1nc(N)c2c(ccc3c2ccn3Cc2ccc3ccccc3n2)n1 | 4 mg/L (≈ 11.8 µM) | 0.27 µM | 74.1% | 0.25 mg/L (≈ 0.734 µM) | 0.21 µM | 0.06 mg/L (≈ 0.176 µM) | 0.5 mg/L (≈ 1.47 µM) | 0.03 mg/L (≈ 0.0881 µM) | 0.83 µM | > 10 µM | 0.06 mg/L (≈ 0.176 µM) | MIC [12]: 0.125 mg/L (≈ 0.367 µM); MIC [14]: 0.06 mg/L (≈ 0.176 µM); MIC [15]: > 64 mg/L; MIC [16]: 4 mg/L; MIC [18]: 2 mg/L (≈ 5.88 µM); MIC [20]: ≤ 0.03 mg/L; MIC [23]: 2 mg/L; MIC [26]: > 64 mg/L; MIC [27]: 4 mg/L; MIC [29]: > 64 mg/L |
| Nc1nc(N)c2c(ccc3c2ccn3Cc2ccc3nc(N)sc3c2)n1 | > 32 mg/L | 0.061 µM | 90.2% | ≤ 0.004 mg/L | 0.006 µM | 2 mg/L (≈ 5.53 µM) | 4 mg/L (≈ 11.1 µM) | 2 mg/L (≈ 5.53 µM) | 0.25 µM | 0.004 µM | 2 mg/L (≈ 5.53 µM) |  |
| Nc1nc(N)c2c(ccc3c2ccn3Cc2ccc(C(=O)O)c3ccccc23)n1 | > 32 mg/L | > 10 µM | 93.5% | 0.5 mg/L (≈ 1.3 µM) | > 10 µM | 2 mg/L (≈ 5.22 µM) | > 8 mg/L | 2 mg/L (≈ 5.22 µM) | > 10 µM | > 10 µM | 2 mg/L (≈ 5.22 µM) |  |
| Nc1nc(N)c2c(ccc3c2ccn3Cc2ccc3ocnc3c2)n1 | > 32 mg/L | 3.65 µM | 29.1% | ≤ 0.004 mg/L | 3.54 µM | 4 mg/L (≈ 12.1 µM) | 2 mg/L (≈ 6.05 µM) | 2 mg/L (≈ 6.05 µM) | 5.87 µM | > 10 µM | 8 mg/L (≈ 24.2 µM) |  |
| Nc1nc(N)c2c(ccc3c2ccn3Cc2ccc3occc3c2)n1 | 1 mg/L (≈ 3.04 µM) | 1.25 µM | 64.5% | ≤ 0.004 mg/L | 0.41 µM | 0.03 mg/L (≈ 0.0911 µM) | 0.125 mg/L (≈ 0.38 µM) | 0.004 mg/L (≈ 0.0121 µM) | 1 µM | 2.46 µM | 0.06 mg/L (≈ 0.182 µM) |  |
| Nc1nc(N)c2c(ccc3c2ccn3Cc2nc3ccccc3o2)n1 | 16 mg/L (≈ 48.4 µM) | 0.66 µM | 16.1% | 0.008 mg/L (≈ 0.0242 µM) | 0.069 µM | 0.25 mg/L (≈ 0.757 µM) | 0.25 mg/L (≈ 0.757 µM) | 0.25 mg/L (≈ 0.757 µM) | 0.97 µM | 0.04 µM | 0.5 mg/L (≈ 1.51 µM) |  |
